Reference: article PMC6193951, “Intra- and inter-protein couplings of backbone motions underlie protein thiol-disulfide exchange cascade” (Scientific Reports, 2018)

T1: B. subtilis ArsC (Bs_ArsC), reduced state re-ArsC (Bacillus subtilis, UniProt P45947)
T1 construct: full-length, 139 residues; recombinant, prepared as previously reported; reduced state (C10, C82, C89 free thiols)
T1 sequence (P45947 1-139): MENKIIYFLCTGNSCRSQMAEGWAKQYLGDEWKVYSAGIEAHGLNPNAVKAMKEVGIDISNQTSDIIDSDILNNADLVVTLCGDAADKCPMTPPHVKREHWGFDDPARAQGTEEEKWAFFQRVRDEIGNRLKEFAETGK

T2: B. subtilis arsenate reductase ArsC_C10SC15AC82S mutant (ArsC in the Trx-complexed state) (B. subtilis, UniProt P45947 1-139, C10S | C15A | C82S, C89 forms an intermolecular disulfide bond with Trx (C89^ArsC-C29^Trx); 15N-labeled in one sample, unlabeled in the other)
T2 construct: Thioredoxin-coupled arsenate reductase ArsC, Bacillus subtilis; triple mutant C10S/C15A/C82S used to trap the mixed-disulfide complex; also called c-ArsC; source: purity greater than 95% by SDS-PAGE
T2 sequence: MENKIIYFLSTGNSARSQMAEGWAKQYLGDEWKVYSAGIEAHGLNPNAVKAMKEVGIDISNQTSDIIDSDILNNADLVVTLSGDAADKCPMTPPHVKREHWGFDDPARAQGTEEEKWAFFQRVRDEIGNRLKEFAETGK


What was measured:
[1] = molecular target: T1, B. subtilis ArsC (Bs_ArsC), reduced state re-ArsC; experiment: isothermal titration calorimetry; type: binding
[2] = molecular target: T2, B. subtilis arsenate reductase …; experiment: preparation of a mixed-disulfide complex (DTNB incubation), studied by NMR (15N CPMG RD, CEST); Trx_C32S and ArsC_C10SC15AC82S linked by an intermolecular disulfide with the 5,5-dithiobis(2-nitrobenzoic acid) incubation protocol; NMR samples in 20 mM Tris-HCl (pH 6.85), 40 mM KCl, 20 mM urea, 20 mM Na2SO4; 25 °C; settings: both partners purified

binding result [2] | Molecule | Kd [1] [µM]
– | O=S(=O)(O)O [sulfate] | 700
binds | B. subtilis thioredoxin Trx_C32S mutant (Trx in the ArsC-complexed state) (enzyme, C29 in the mixed disulfide with ArsC C89 (C89^ArsC-C29^Trx); 15N-labeled in one sample, unlabeled in the other, Thioredoxin (Trx), Bacillus subtilis; C32S mutant used to trap the mixed-disulfide complex; also called c-Trx; source: purity greater than 95% by SDS-PAGE) MAIVKATDQSFSAETSEGVVLADFWAPWCGPSKMIAPVLEELDQEMGDKLKIVKIDVDENQETAGKYGVMSIPTLLVLKDGEVVETSVGFKPKEALQELVNKHL | –
